{"source": "paper PMC8710297", "about": "“Identification of potent SENP1 inhibitors that inactivate SENP1/JAK2/STAT signaling pathway and overcome platinum drug resistance in ovarian cancer” (Clinical and Translational Medicine, 2021)", "key": {"IGROV1 CR cells [1]": {"system": "IGROV1 CR cells", "assay": "Viability of IGROV1 CR cells treated with compound alone (SRB)", "type": "cell-based", "settings": "48 hrs", "procedure": "Cel l proliferation was determined by SR B assay. (B) Viability of IG ROV 1 CR cells treated by indicated compounds fo r 48 hrs. SRB assay wa s used to determine cell viabil ity. […]\n1. Antibodies and re a ge nt s […]\n[…] Momordin Ic ( A14773; Adooq Biosc ience) was dissolved in DMSO. Ursolic acid (A10961; Adooq Bioscience) wa s dissolved in DMSO. Collection of Mc natural compound an alogs were pu rch ase d fro m Sigma. Detailed proced ure to sy nt h e s ize UA derivatives was in c lu d ed in suppleme ntal material and methods.\n2. Cell culture and resistance cell line establishment […]\nwere cultured at 37 °C in DM EM with 10% Fe ta l Bovine Serum (F BS). All th e cells were cultured at in a humidified incubator with 5% CO2 atmo s phe re.\n3. In vitro SUMOylation and de‐SU MOylation assays\nThe SUMO yl ation re ac tions were performed according to th e manufacture’s instruction (BML‐UW8955‐ 0001; ENZO) and were described previously (1) . Briefly, 200 nM of purified HIS‐JAK 2 wa s mixed wit h reco mbinant SUMOs in reac ti on bu ffer (20 μl) containing Mg‐ AT P, SUMO E1, and SUMO E2, followed by incubation at 37°C fo r 60 min. […]\nCell viability was detected using Sulforhodamine B (SRB) assay as described previously (3).\nAbsorbance at 51 0 nm was detected using a SpectraMax Re a d e r (Molecular Devices) and an alyzed with SoftMax Analys is Software (Molecular Devices). […]"}, "IGROV1 CR cells [2]": {"system": "IGROV1 CR cells", "assay": "Drug synergy screening: SRB proliferation assay with 2 μM cisplatin", "type": "cell-based", "procedure": "(A) Collection of Momordin Ic (Mc) natural compound analogues. […] Cell proliferation was determined by the sulforhodamine B (SRB) assay. […] IGROV1 CR cells were incubated with Mc at indicated concentrations for 48 h and then harvested for Western blot for indicated proteins. […] IGROV1 CR cells were incubated with UA and then treated as in C. […] Intensity of SUMOylated JAK2 was measured by Quantity One software. […] Recombinant His‐JAK2 was SUMOylated by in vitro SUMOylation assay, and then SUMOylated JAK2 proteins were incubated with or without recombinant GST‐SENP1 together with Mc for 3 h. […] In vitro assay was performed as in (F). […]"}}, "data": [{"compound": "C[C@H]1[C@H](C)CC[C@]2(C(=O)OCC(=O)NCCO)CC[C@]3(C)C(=CC[C@@H]4[C@@]5(C)CC[C@H](O)C(C)(C)[C@@H]5CC[C@]43C)[C@H]12", "note": "[UAMMC5]", "values": [{"measurement": "toxicity to cells of compound alone", "setting": "IGROV1 CR cells [1]", "value": "higher toxicity"}, {"measurement": "IC50 of UA derivatives to inhibit resistant cells together with cisplatin (in words)", "setting": "IGROV1 CR cells [2]", "value": "lower IC50"}]}, {"compound": "C[C@H]1[C@H](C)CC[C@]2(C(=O)OCCNC(=O)OC(C)(C)C)CC[C@]3(C)C(=CC[C@@H]4[C@@]5(C)CC[C@H](O)C(C)(C)[C@@H]5CC[C@]43C)[C@H]12", "note": "[UAMMC3]", "values": [{"measurement": "toxicity to cells of compound alone", "setting": "IGROV1 CR cells [1]", "value": "higher toxicity"}, {"measurement": "IC50 of UA derivatives to inhibit resistant cells together with cisplatin (in words)", "setting": "IGROV1 CR cells [2]", "value": "lower IC50"}]}]}
